Assay results taken from US20240197236A1, “ELECTRO-ANATOMIC CARDIAC REPOLARIZATION MAPPING” (University Health Network, priority 2022, published 2024).

Tested on: rabbit heart
Experiment: Rabbit heart Langendorff, simultaneous optical mapping and epicardial electrode-grid mapping of repolarization duration
Conditions: after 20 uM addition of pinacidil to the perfusate
Description: A study was performed to adapt a rabbit heart Langendorff optical mapping model^42 to add the recording of electrical EGMs to a commercially-available electrode array lab (Advisor […] catheter, Abbott Laboratories), after its use in the clinical laboratory for animal use. This involved using a UHN research mapping system in which unipolar EGMs from a 16-electrode grid were used to record cardiac signals with a proprietary mapping system (described previously as UHN Cartesian Mapping System^43) at a sampling rate of 1 kHz. This electrode array was chosen as spacing between the splines allowed recording of the fluorescence from the voltage-sensitive dye RH237. Fluorescence was recorded with a high-speed CMOS camera (Ultima-L, SciMedia, Costa Mesa, CA) at a rate of 500 frames/s. […] A derivative of the vectorcardiogram was obtained by projecting the repolarization loop along its maximum axis where the projection may be called a loop optimized rEGM (i.e., which is a type of repolarization-optimized EGM that in this case is determined using the loop method described with respect to FIG. 5C). A measurement of repolarization duration, called APD^v, was measured from the onset of QRS to baseline return of the loop rEGM. It was hypothesized that rEGM provides vector-derived integrated action potential duration (APD^v) that correlates with local repolarization assessed by optical mapping. […]

Compound: CC(N/C(=N\C#N)Nc1ccncc1)C(C)(C)C (centres unmarked) [Pinacidil, pinacidil]
- APD (optical APD90 from fluorescence) (baseline APD90 151 ms): 89 ms
- ARI (repolarization duration from loop rEGM) (baseline APD^v average 142 ms): 68 ms
